In patent US20260042764A1, “COMPOSITIONS AND METHODS FOR INHIBITION OF KRAS” (TheRas, Inc., priority 2022, published 2026):

What was measured:
[1] = biological target: T1, Avi-KRAS G12D (1-169) GppNHp/RAF1 RBD-3xFLAG (52-151) (Homo sapiens, UniProt P01116, G12D); assay: Raf1-KRAS G12D-GppNHP disruption HTRF assay (Biological Example 1); assay type: binding
T1 construct: Avi-KRAS G12D (1-169)
Summary of the method: (§1)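 Compound disruption of KRAS-GppNHp/RAF1 RBD binding read by HTRF after two sequential 1 h room-temperature incubations (protein mix, then detection reagents), shaken at 700 rpm. Buffer Tris pH 7.5 with MgCl2, BSA, Tween and 10% DMSO; results given as percent activity relative to DMSO (100%).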

[2] = biological target: T2, Avi-KRAS G12R (1-169) GppNHp/RAF1 RBD-3xFLAG (52-151) (Homo sapiens, UniProt P01116, G12R); assay: Raf1-KRAS G12R-GppNHP disruption HTRF assay (Biological Example 1); assay type: binding
T2 construct: Avi-KRAS G12R (1-169)
Summary of the method: as §1

[3] = biological target: T3, Avi-KRAS G12V (1-169) GppNHp/RAF1 RBD-3xFLAG (52-151) (Homo sapiens, UniProt P01116, G12V); assay: Raf1-KRAS G12V-GppNHP disruption HTRF assay (Biological Example 1); assay type: binding
T3 construct: Avi-KRAS G12V (1-169)
Summary of the method: as §1

[4] = biological target: T4, Avi-KRAS WT (1-169) GppNHp/RAF1 RBD-3xFLAG (52-151) (Homo sapiens, UniProt P01116); assay: Raf1-KRAS WT-GppNHP disruption HTRF assay (Biological Example 1); assay type: binding
T4 construct: Avi-KRAS WT (1-169)
Summary of the method: as §1

GP2d cells (KRAS G12D) = assay: Cell-based pERK HTRF assay in GP2d cell (Biological Example 2); details: GP2d, GP2d (KRAS G12D) cells, pERK HTRF
Summary of the method: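 HTRF read-out of pERK (excitation 320 nm, emission 615 nm) after lysates sat 4–24 h at room temperature with Eu cryptate and d2 antibodies.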

SW620 cells (KRAS G12V) = assay: Cell-based pERK HTRF assay in SW620 cell (Biological Example 4); details: Homo sapiens, SW-620, SW620 (KRAS G12V) cells, pERK HTRF
Summary of the method: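 SW620 (KRAS G12V) cells seeded at 3×10^4/well in RPMI, 10% FBS, then treated next day for 4 h with a 9-point half-log series from 1 μM top (0.25% DMSO). Lysates analyzed for pERK by HTRF (Eu cryptate/d2 antibodies, 4–24 h at room temperature), excitation 320 nm, emission 615 nm.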

[5] = KRAS G12D, GppNHp-loaded, class symbols
[6] = KRAS G12R, GppNHp-loaded, class symbols
[7] = KRAS G12V, GppNHp-loaded, class symbols
[8] = KRAS WT, GppNHp-loaded, class symbols

T2 sequence (P01116 1-169 isoform P01116-2 G12R): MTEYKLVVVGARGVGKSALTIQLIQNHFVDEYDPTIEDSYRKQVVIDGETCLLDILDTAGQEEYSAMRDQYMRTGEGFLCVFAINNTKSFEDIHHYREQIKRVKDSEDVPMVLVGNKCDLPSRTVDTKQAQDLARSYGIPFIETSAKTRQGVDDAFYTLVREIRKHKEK
T4 sequence (P01116 1-169 isoform P01116-2): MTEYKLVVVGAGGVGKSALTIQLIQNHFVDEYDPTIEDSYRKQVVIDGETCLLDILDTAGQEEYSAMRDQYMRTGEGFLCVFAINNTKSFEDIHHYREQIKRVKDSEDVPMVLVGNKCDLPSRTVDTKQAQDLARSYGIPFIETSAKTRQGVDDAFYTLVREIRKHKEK
T3 sequence (P01116 1-169 isoform P01116-2 G12V): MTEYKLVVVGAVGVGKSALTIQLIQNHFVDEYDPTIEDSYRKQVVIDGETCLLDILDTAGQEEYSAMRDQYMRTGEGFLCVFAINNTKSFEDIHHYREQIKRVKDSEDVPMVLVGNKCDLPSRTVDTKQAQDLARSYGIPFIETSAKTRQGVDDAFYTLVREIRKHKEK
T1 sequence (P01116 1-169 isoform P01116-2 G12D): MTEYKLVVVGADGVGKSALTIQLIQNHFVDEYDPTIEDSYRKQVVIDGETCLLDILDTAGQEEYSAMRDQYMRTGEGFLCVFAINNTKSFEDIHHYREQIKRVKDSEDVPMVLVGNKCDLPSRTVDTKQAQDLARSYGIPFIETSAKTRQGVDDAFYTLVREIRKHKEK

| IC50 ([1]; KRAS G12D-GppNHp/RAF1 RBD HTRF) | IC50 ([2]; KRAS G12R-GppNHp/RAF1 RBD HTRF) | IC50 ([3]; KRAS G12V-GppNHp/RAF1 RBD HTRF) | IC50 ([4]; KRAS WT-GppNHp/RAF1 RBD HTRF) | IC50 (GP2d cells (KRAS G12D)) | IC50 (SW620 cells (KRAS G12V)) | IC50 [1, 5] | IC50 [2, 6] | IC50 [3, 7] | IC50 [4, 8] | IC50 (GP2d cells (KRAS G12D); class symbols) | IC50 (SW620 cells (KRAS G12V); class symbols) | IC50 ([1]; KRAS G12D, GppNHp-loaded, Table 11) | IC50 ([2]; KRAS G12R, GppNHp-loaded, Table 11) | IC50 ([3]; KRAS G12V, GppNHp-loaded, Table 11) | IC50 ([4]; KRAS WT, GppNHp-loaded, Table 11) | Structure (SMILES) |
| --- | --- | --- | --- | --- | --- | --- | --- | --- | --- | --- | --- | --- | --- | --- | --- | --- |
| 1000 to 10000 nM | 1000 to 10000 nM | 1000 to 10000 nM | 100 to 1000 nM | 100 to 1000 nM | 100 to 1000 nM |  |  |  |  |  |  |  |  |  |  | CC[C@@H]1[C@H](N(C)c2nc(OC[C@@]34CCCN3C[C@H](F)C4)nc3c(F)c(-c4ccc(F)c5sc(N)c(C#N)c45)c(C(F)(F)F)cc23)CCN1C(=O)C1CC1 [Compound 434] |
|  |  |  |  |  |  | < 100 nM | < 100 nM | < 100 nM | < 100 nM | < 100 nM | < 100 nM |  |  |  |  | CCN(c1nc(OCC23CCCN2CC(F)C3)nc2c(F)c(-c3ccc(F)c4sc(N)c(C#N)c34)c(C(F)(F)F)cc12)C1CCN(C(=O)c2ccncc2)C1 (stereo not drawn) [Compound 709] |
|  |  |  |  |  |  | < 100 nM | < 100 nM | < 100 nM | < 100 nM | < 100 nM | < 100 nM |  |  |  |  | CCN(c1nc(OC[C@@]23CCCN2C[C@H](F)C3)nc2c(F)c(-c3ccc(F)c4sc(N)c(C#N)c34)c(C(F)(F)F)cc12)[C@H]1CCN(C(=O)N2CC3C(C2)C3(F)F)C1 (stereo partly drawn) [Compound 657] |
| 100 to 1000 nM | 100 to 1000 nM | 100 to 1000 nM | 100 to 1000 nM | < 100 nM | < 100 nM |  |  |  |  |  |  |  |  |  |  | C[C@@H]1[C@H](N(C)c2nc(OC[C@@]34CCCN3C[C@H](F)C4)nc3c(F)c(-c4ccc(F)c5sc(N)c(C#N)c45)c(C(F)(F)F)cc23)CCN1C(=O)C(C)(F)F [Compound 459] |
|  |  |  |  |  |  | < 100 nM | < 100 nM | < 100 nM | < 100 nM | < 100 nM | < 100 nM |  |  |  |  | C=C(F)C(=O)N1CC[C@H](N(CC)c2nc(OC[C@@]34CCCN3C[C@H](F)C4)nc3c(F)c(-c4ccc(F)c5sc(N)c(C#N)c45)c(C(F)(F)F)cc23)C1 (atropisomer, axis not shown) [Compound 676] |
| 100 to 1000 nM | 100 to 1000 nM | 100 to 1000 nM | 100 to 1000 nM | < 100 nM | < 100 nM |  |  |  |  |  |  |  |  |  |  | CN(C)C(=O)c1cn2c(n1)CN(c1nc(OC[C@@]34CCCN3C[C@H](F)C4)nc3c(F)c(-c4ccc(F)c5sc(N)c(C#N)c45)c(C(F)(F)F)cc13)CC2 [Compound 419] |
|  |  |  |  |  |  | < 100 nM | 100 to 1000 nM | 100 to 1000 nM | 100 to 1000 nM | < 100 nM | < 100 nM |  |  |  |  | CCN(c1nc(OC[C@@]23CCCN2C[C@H](F)C3)nc2c(F)c(-c3ccc(F)c4sc(N)c(C#N)c34)c(C(F)(F)F)cc12)[C@H]1CCN(C(=O)c2ncc(C)o2)C1 (atropisomer, axis not shown) [Compound 803] |
|  |  |  |  |  |  | < 100 nM | < 100 nM | 100 to 1000 nM | < 100 nM | < 100 nM | < 100 nM |  |  |  |  | CCN(c1nc(OC[C@@]23CCCN2C[C@H](F)C3)nc2c(F)c(-c3ccc(F)c4sc(N)c(C#N)c34)c(C(F)(F)F)cc12)[C@@H]1CCN(C(=O)[C@H](C)OC)[C@@H]1C (atropisomer, axis not shown) [Compound 789] |
|  |  |  |  |  |  | 1000 to 10000 nM | 1000 to 10000 nM | 1000 to 10000 nM | 1000 to 10000 nM | < 100 nM | < 100 nM |  |  |  |  | N#Cc1c(N)sc2c(F)ccc(-c3c(C(F)(F)F)cc4c(N(Cc5cccnc5N)C5CC5)nc(OC[C@@]56CCCN5C[C@H](F)C6)nc4c3F)c12 (atropisomer, axis not shown) [Compound 602] |
|  |  |  |  | < 100 nM | < 100 nM |  |  |  |  |  |  | 100 to 1000 nM | 100 to 1000 nM | 100 to 1000 nM | 100 to 1000 nM | C[C@H]1C[C@H](O)CCN1c1nc(OC[C@@]23CCCN2C[C@H](F)C3)nc2c(F)c(-c3ccc(F)c4sc(N)c(C#N)c34)c(C(F)(F)F)cc12 [Compound 246] |
| < 100 nM | 100 to 1000 nM | 100 to 1000 nM | 100 to 1000 nM | < 100 nM | < 100 nM |  |  |  |  |  |  |  |  |  |  | CC(=O)N1C[C@@H](N(C)c2nc(OC[C@@]34CCCN3C[C@H](F)C4)nc3c(F)c(-c4ccc(F)c5sc(N)c(C#N)c45)c(C(F)(F)F)cc23)C[C@@H]1C [Compound 279] |
